How the values were obtained:
[1] = system: anaerobic mixed culture (domestic sewage); experiment: Anaerobic digestion of domestic sewage, overall effect of formate salt concentration; details: for effect on anaerobic digestion over the tested concentration range: 10 mg/L to 100,000 mg/L based on the organic matter available for digestion
Description: The various formate salts include, but are not limited to sodium formate (NaHCOO), potassium formate (KHCOO), ammonium formate (NH4COO), calcium formate (Ca(HCOO)2), and others either singly or in combination. These formate salts have been tested for concentrations ranging from 10 mg/L (˜10 ppm) to as high as […] (100,000 mg/L) based on the organic matter available for digestion.
Two tests were run in which sodium formate in concentrations ranging from a few parts per million (ppm) up to ten percent (10%) on a mass basis were added to samples taken from a publicly owned anaerobic digester. The samples were first cultured in laboratory sized batch reactors. The twelve batch reactors were then sampled, and studied for periods of up to fifty-five days. The process variables that were monitored included COD (Chemical Oxygen Demand), TS (Total Solids), TVS (Total Volatile Solids) and the pH of the culture. Time and the initial sodium formate concentration level were the independent variables. Finally measurements were also made of the bacterial counts at the beginning and at the end of the fifty five day period.
Municipal sludge from the city of Lubbock, Wastewater Treatment Plant was digested in 12 batch digesters. Using twelve batch reactors allowed the collection of control reactors data (i.e., no formate in the reactors) in triplicate, titration studies of increasing formate concentration, and duplicates/triplicates of varying formate concentration. Experiments were conducted in the laboratories of Texas Tech University.

[2] = system: microorganisms in domestic sewage; details: sodium chloride spike; cited from earlier work

Row | Structure (SMILES) | effect on anaerobic digestion over the tested concentration range [1] | concentration range of greatest effects ([1]; 10 mg/L to 100,000 mg/L tested) | toxicity of sodium levels [2]
1 | N.O=CO [ammonium formate] | initiate the inhibition of digestion at concentrations above a few thousand mg/L |  | 
2 | O=C[O-].[K+] [potassium formate] | beneficial at all concentration levels | greatest effects being observed over the 100 ppm to the 2,000-mg/L range | 
3 | [Cl-].[Na+] [sodium chloride] |  |  | toxic to all microorganisms in domestic sewage at levels above three to four percent
